Source: patent US10537518B2, “Homogenization system of drugs into biodegradable polymer: smart polymer system” (Juvic Inc., priority 2015, dated 2020)

What was measured:
[1] = Particle size analysis with particle size analyzer; format: physicochemical; details: for size of commercially available crystalline drug: crude powder, before homogenization
Protocol: Particle size analysis was performed using a particle size analyzer (Schimdzu, Japan). […] To uniformly mix drugs having a polymer combination and a colloid formulation, the drugs were homogenized at an optimum rotary speed of 21,000 rpm for 5 minutes using a rotor homogenizer (Homogenizer Power Gen 500, Fisher Scientific, USA). Ultrasonication was performed at […] using an ultrasonicator (Sonic vibra cell, USA). In the size analysis, distilled water was used as a solvent, and an average of values obtained reading each of samples three times was calculated. The particle size reading was performed at an interval of 30 minutes due to the tendency of the drug to be crystallized when the drug is exposed to distilled water for a long period of time.

[2] = Colloid morphology and size by scanning electron microscope (SEM); format: physicochemical; details: colloids of HA and PVP 1:1 with drug
Protocol: (§1) The morphology of a colloidal structure of a polymer was analyzed using a scanning electron microscope (SEM; equipped with Type JEOL (JSM-7001F) energy-dispersive X-ray (EDX) Oxford ISIS 300 micro-analysis system). For this experiment, platinum coating was performed at 10 mA to protect colloids from high-energy beams. Also, a decrease in the size of the colloids was confirmed using a transmission electron microscope (TEM), and this confirmation was performed on a very thin sample formed on a copper grid as an upper cover provided in the grid. A TEM micrograph was obtained at 120 kV using a JEM 2010 (HC) (JEOL Ltd, USA) microscope. The amorphous form of the drug in the colloidal structure was confirmed using a random XRD analysis on the sample, and continuously scanned at intervals of 3-80° 2θ using an Ultima IV diffractometer (Rigaku Corporation, Japan) with Bragg-Brentano geometry (2θ/θ) having 40 kV/30 mA X-ray and K-beta filter radiations.

IL-1β = test: Serum IL-1β by ELISA in CIA mice; format: in vivo, DBA/1 mice; details: versus RA model
[3] = Colloid size by transmission electron microscope (TEM); format: physicochemical; details: colloids of HA and PVP 1:1 with drug
Protocol: as §1

[4] = In vitro drug release by Franz cell diffusion; format: in vitro ADME; details: pig skin; for release of drug from SPS microneedles: n=3; for time to diffusion after application: from SPS microneedles
Protocol: In vitro analysis was performed using Franz cell diffusion. Microneedles containing 0.1% NR and 0.75% CAP were applied onto the skin of a dead pig, and put on donor moieties of Franz cells. A receptor moiety was composed of PBS including 20% ethanol. A sample was analyzed at intervals of 0, 0.5, 1, 2, 3, 4, 5, 6, 12, and 24 hours. The quantification of NR and CAP was performed at 559 nm and 280 nm using UV-Vis spectroscopy (Jasco, V650) and Ultra Performance Liquid Chromatography (UPLC) (Acquity UPLC, Waters), respectively. The amounts of NR and CAP in a microneedle patch were determined by dissolving the patch in PBS including 10% ethyl acetate and 20% ethanol, respectively. Thereafter, solid-phase extraction was performed using ethyl acetate as an eluent. A microneedle patch having no drug was used as the control. 0.1% NR dissolved in 20% ethyl acetate and CAP dissolved in 40% ethanol were used in a topical formulation model. This model was most widely used for a formulation of a lipophilic compound in which an organic solvent was used to dissolve the lipophilic drug. 1 mL of such a topical formulation was dropped on the skin of a pig until the topical formulation was diffused to an area of approximately 2 cm^2.
Also, the size of CAP particles released during diffusion of the Franz cells in the skin of a dead pig (FIG. 4C) was measured. PBS solution samples were taken from the Franz cell receptor after 0, 6, 12, 24 hours of application of the CAP microneedles, and the particle sizes of the samples were measured through SEM image analysis.

[5] = cited from earlier work
[6] = homogenized with CMC (10% by weight), 0.1% NR, 0.75% CAP
[7] = homogenized with HA (10% by weight), 0.1% NR, 0.75% CAP
[8] = homogenized with PVA (10% by weight), 0.1% NR, 0.75% CAP
[9] = homogenized with PVP (10% by weight), 0.1% NR, 0.75% CAP
[10] = homogenized, polymer composition: None
[11] = in HA and PVP (1:1) smart polymer system

Row | Compound | size of commercially available crystalline drug [1] | particle size [1, 6] | particle size [1, 7] | particle size [1, 8] | particle size [1, 9] | particle size [1, 10] | particle size [1, 11] | circular colloidal particle size (SEM) [2] | decrease of serum IL-1β level (IL-1β) | colloidal structure particle size (TEM) [3] | release of drug from SPS microneedles ([4]; 0.75% CAP microneedles, after 12 hours of application) | time to diffusion after application [4] | log P [5] | release of drug from SPS microneedles ([4]; 0.1% NR microneedles, after 8 hours of application)
1 | COc1cc(CNC(=O)CCCC/C=C/C(C)C)ccc1O [CAP, capsaicin] | 4.845±3 μm | 43.856 ± 3 μm | 9.736 ± 2 μm | 2.676 ± 7 μm | 1.432 ± 3 μm | 0.986±6 μm | 167.4±4 nm | approximately 155±8 nm | approximately 50% | 154±3 nm | 86% | within an hour | – | –
2 | CCN(CC)c1ccc2nc3c4ccccc4c(=O)cc-3oc2c1 [NR, Nile Red] | 6.723±5 μm | 67.733 ± 8 μm | 11.083 ± 4 μm | 4.243 ± 8 μm | 1.564 ± 3 μm | 1.797±7 μm | 157.4±6 nm | approximately 168±12 nm | – | 161±32 nm | – | ≤ 30 min | 5 | 74%
